From PMC3076432 (PLoS ONE, 2011)
Like-named read-outs stand apart in the source and are kept apart here. Ends that are not written are not given here. Peptide text beside a SMILES is read from it.

Columns and labels:
F. graminearum hyphae [1] = assay type: cell-based, Fusarium graminearum
Aspergillus flavus = assay type: cell-based
F. graminearum hyphae [2] = assay type: cell-based, Fusarium graminearum; remark: listed apart in the source
[3] = F. graminearum PH-1, SFM without calcium
[4] = PH-1, all concentrations tested
[5] = PH-1 conidia, microscopic observation after overnight (16 hours) incubation

Compound: NCC(=O)N1CCC[C@H]1C(=O)N[C@@H](CS)C(=O)N[C@@H](Cc1ccccc1)C(=O)N[C@@H](CO)C(=O)NCC(=O)N[C@@H](CS)C(=O)O [ALP1] (H-GPCFSGC-OH; N-terminus and C-terminus assumed)
- antifungal activity at 48 µM (in words) (F. graminearum PH-1; PH-1): no antifungal activity
- IC100: amount of protein required to inhibit F. graminearum conidial germination completely (F. graminearum PH-1; [3]): >48 µM
- antifungal activity (in words) (F. graminearum PH-1; [4]): totally inactive

Compound: C[C@H](NC(=O)[C@H](CS)NC(=O)[C@@H]1CCCN1C(=O)CN)C(=O)N[C@@H](CO)C(=O)N[C@@H](CC(=O)O)C(=O)N[C@@H](Cc1c[nH]cn1)C(=O)N[C@@H](CC(N)=O)C(=O)N[C@@H](CS)C(=O)O [ALP4] (H-GPCASDHNC-OH; N-terminus and C-terminus assumed)
- antifungal activity at 48 µM (in words) (F. graminearum PH-1; PH-1): no antifungal activity
- IC100: amount of protein required to inhibit F. graminearum conidial germination completely (F. graminearum PH-1; [3]): >48 µM
- antifungal activity (in words) (F. graminearum PH-1; [4]): totally inactive

Compound: C[C@@H](O)[C@H](NC(=O)[C@H](CS)NC(=O)[C@H](Cc1c[nH]c2ccccc12)NC(=O)[C@H](CS)NC(=O)[C@H](CCCNC(=N)N)NC(=O)[C@H](Cc1ccccc1)NC(=O)[C@H](CC(=O)O)NC(=O)[C@H](CC(=O)O)NC(=O)[C@H](CCCNC(=N)N)NC(=O)[C@H](CS)NC(=O)[C@H](CCCNC(=N)N)NC(=O)CN)C(=O)N[C@@H](CCCCN)C(=O)N[C@@H](CCCNC(=N)N)C(=O)N[C@@H](CS)C(=O)O [GMA1-C] (H-GRCRDDFRCWCTKRC-OH; N-terminus and C-terminus assumed)
- SG uptake at 24 µM relative to that induced by GMA4-C (F. graminearum hyphae [1]; 24 µM): twice
- IC100: amount of protein required to inhibit F. graminearum conidial germination completely (F. graminearum PH-1; [3]): 24 µM
- hyperbranching of fungal hyphae (F. graminearum PH-1; PH-1, microscopy after 16 hours): did not cause hyperbranching
- concentration giving complete inhibition of conidial germination (IC100) (F. graminearum PH-1; PH-1 conidia): 24 µM
- lowest concentration at which antifungal activity / growth inhibition was evident (F. graminearum PH-1; [5]): 6 µM

Compound: N=C(N)NCCC[C@H](NC(=O)[C@H](Cc1ccccc1)NC(=O)[C@H](CC(=O)O)NC(=O)[C@H](CC(=O)O)NC(=O)[C@@H](N)CCCNC(=N)N)C(=O)O [GMA1-L] (H-RDDFR-OH; N-terminus and C-terminus assumed)
- SYTOX Green uptake (in words) (F. graminearum hyphae [1]): failed to induce any uptake
- IC100: amount of protein required to inhibit F. graminearum conidial germination completely (F. graminearum PH-1): >96 µM
- antifungal activity (in words) (F. graminearum PH-1): no antifungal activity
- antifungal activity at 96 µM (in words) (F. graminearum PH-1): inactive
- IC50 (F. graminearum PH-1; PH-1, 36 h): > 96 µM

Compound: N=C(N)NCCC[C@H](NC(=O)CN)C(=O)N[C@@H](CS)C(=O)N[C@@H](CCCNC(=N)N)C(=O)N[C@@H](CC(=O)O)C(=O)N[C@@H](CC(=O)O)C(=O)N[C@@H](Cc1ccccc1)C(=O)N[C@@H](CCCNC(=N)N)C(=O)N[C@@H](CS)C(=O)O [GMA1] (H-GRCRDDFRC-OH; N-terminus and C-terminus assumed)
- antifungal activity at 48 µM (in words) (F. graminearum PH-1; PH-1): no antifungal activity
- antifungal activity at 96 µM (in words) (F. graminearum PH-1; PH-1): failed to show any antifungal activity
- IC100: amount of protein required to inhibit F. graminearum conidial germination completely (F. graminearum PH-1; [3]): >192 µM
- antifungal activity (in words) (F. graminearum PH-1; [4]): inactive

Compound: C[C@@H](O)[C@H](NC(=O)[C@H](CS)NC(=O)[C@H](Cc1ccccc1)NC(=O)[C@H](CS)NC(=O)[C@H](CCCNC(=N)N)NC(=O)[C@H](CCCNC(=N)N)NC(=O)[C@H](CCCNC(=N)N)NC(=O)[C@H](Cc1ccccc1)NC(=O)CNC(=O)[C@H](CCCNC(=N)N)NC(=O)[C@H](CS)NC(=O)[C@H](CCCNC(=N)N)NC(=O)CN)C(=O)N[C@H](C(=O)N[C@@H](Cc1c[nH]cn1)C(=O)N[C@@H](CS)C(=O)O)[C@@H](C)O [GMA4-C] (H-GRCRGFRRRCFCTTHC-OH; N-terminus and C-terminus assumed)
- IC100: amount of protein required to inhibit F. graminearum conidial germination completely (F. graminearum PH-1): 6 µM
- concentration giving complete inhibition of conidial germination (IC100) (F. graminearum PH-1): 6 µM
- lowest concentration at which antifungal activity / growth inhibition was evident (F. graminearum PH-1): 1.5 µM
- fungal growth inhibition at 3 µM (F. graminearum PH-1; PH-1, 16 h, 3 µM): 70±9%
- IC50 (F. graminearum PH-1; PH-1, 36 h): 3 µM

Compound: C[C@H](NC(=O)CNC(=O)[C@@H](N)CCCNC(=N)N)C(=O)N[C@@H](CCCNC(=N)N)C(=O)N[C@@H](CCCNC(=N)N)C(=O)N[C@@H](CCCNC(=N)N)C(=O)O [GMA4-L1] (H-RGARRR-OH; N-terminus and C-terminus assumed)
- SYTOX Green uptake at 24 µM (F. graminearum hyphae [1]; 24 µM): > 100 fluorescence units
- IC100: amount of protein required to inhibit F. graminearum conidial germination completely (F. graminearum PH-1): >96 µM
- growth inhibition at 24 µM, 16 hours (in words) (F. graminearum PH-1): mild growth inhibition
- growth inhibition at 96 µM (F. graminearum PH-1; PH-1, 16 h): 30–40%
- IC50 (F. graminearum PH-1; PH-1, 36 h): > 96 µM

Compound: C[C@H](NC(=O)[C@H](Cc1ccccc1)NC(=O)CNC(=O)[C@@H](N)CCCNC(=N)N)C(=O)N[C@@H](CCCNC(=N)N)C(=O)N[C@@H](CCCNC(=N)N)C(=O)O [GMA4-L2] (H-RGFARR-OH; N-terminus and C-terminus assumed)
- SYTOX Green uptake (in words) (F. graminearum hyphae [1]): failed to induce any uptake
- IC100: amount of protein required to inhibit F. graminearum conidial germination completely (F. graminearum PH-1): >96 µM
- growth inhibition at 24 µM, 16 hours (in words) (F. graminearum PH-1): mild growth inhibition
- growth inhibition at 96 µM (F. graminearum PH-1; PH-1, 16 h): 30–40%
- IC50 (F. graminearum PH-1; PH-1, 36 h): > 96 µM

Compound: N=C(N)NCCC[C@H](NC(=O)[C@H](CCCNC(=N)N)NC(=O)[C@H](CCCNC(=N)N)NC(=O)[C@H](Cc1ccccc1)NC(=O)CNC(=O)[C@@H](N)CCCNC(=N)N)C(=O)O [GMA4-L] (H-RGFRRR-OH)
- fungal growth inhibition at 12 µM (F. graminearum PH-1; PH-1, 16 h, 12 µM): 100%
- IC50 (F. graminearum PH-1; PH-1, 36 h): 4 µM
- fungal growth inhibition at 6 µM (F. graminearum PH-1; PH-1, 36 h, 6 µM): 91±7%

Compound: N=C(N)NCCC[C@H](NC(=O)CN)C(=O)N[C@@H](CS)C(=O)N[C@@H](CCCNC(=N)N)C(=O)NCC(=O)N[C@@H](Cc1ccccc1)C(=O)N[C@@H](CCCNC(=N)N)C(=O)N[C@@H](CCCNC(=N)N)C(=O)N[C@@H](CCCNC(=N)N)C(=O)N[C@@H](CS)C(=O)O [GMA4] (H-GRCRGFRRRC-OH; N-terminus and C-terminus assumed)
- concentration giving complete inhibition of conidial germination (IC100) (F. graminearum PH-1; PH-1 conidia): 12 µM
- lowest concentration at which antifungal activity / growth inhibition was evident (F. graminearum PH-1; [5]): 6 µM

Compound: RTCESQSHKFKGPCASDHNCASVCQTERFSGGRCRGFRRRCFCTTHC (also: bicyclic or more (positions not given here)) [MtDef4]
- SYTOX Green uptake (in words) (F. graminearum hyphae [1]): increased in a concentration dependant manner
- time to start of SG uptake after addition of defensin (F. graminearum hyphae [1]): ≤ 5 min
- maximum SYTOX Green fluorescence at 6 µM, 5 hours (F. graminearum hyphae [1]; 6 µM, 5 hours): 702±10 units
- growth inhibition of A. flavus at 48 µM (Aspergillus flavus): approximately 75%
- hyphal morphology compared with untreated control hyphae (F. graminearum hyphae [2]): no difference
- IC100: amount of protein required to inhibit F. graminearum conidial germination completely (F. graminearum PH-1): 1.5 to 2.5 µM
- concentration giving complete inhibition of conidial germination (IC100) (F. graminearum PH-1): 1.5 µM
- fungal growth inhibition at 1.5 µM (F. graminearum PH-1; 1.5 µM): 100%
- IC50 (F. graminearum PH-1; read-out: IC50: amount of protein required for inhibiting 50% growth of F. graminearum): 0.75 to 1 µM
